Assay results as given in US8735322B2, “Herbicides” (Syngenta Limited, priority 2008, dated 2014).

How the values were obtained:
Type in all cases: in vivo
[1] = tested on: Alopecurus myosuroides (ALOMY); experiment: Example B pre-emergence herbicidal activity, glasshouse pot test; conditions: 312 h, rate 1000 g/ha, evaluated after 13 days, read-out: herbicidal damage ALOMY (100=total damage to plant; 0=no damage to plant)
Experimental: (§1) Seeds of a variety of test species were sown in standard soil in pots. After cultivation for one day (pre-emergence) or after 8 days cultivation (post-emergence) under controlled conditions in a glasshouse (at 24/16° C., day/night; 14 hours light; 65% humidity), the plants were sprayed with an aqueous spray solution derived from the formulation of the technical active ingredient in acetone/water (50:50) solution containing 0.5% Tween 20 (polyoxyethelyene sorbitan monolaurate, CAS RN 9005-64-5). The test plants were then grown in a glasshouse under controlled conditions in a glasshouse (at 24/16° C., day/night; 14 hours light; 65% humidity) and watered twice daily. After 13 days for pre and post-emergence, the test was evaluated (100=total damage to plant; 0=no damage to plant). Alopecurus myosuroides (ALOMY), Avena fatua (AVEFA), Setaria faberi (SETFA), Echinochloa crus-galli (ECHCG), Solanum nigrum (SOLNI) and Amaranthus retroflexus (AMARE) Pre-Emergence Activity

Solanum nigrum (SOLNI) [2] = experiment: as above; conditions: 312 h, rate 1000 g/ha, evaluated after 13 days, read-out: herbicidal damage SOLNI (100=total damage to plant; 0=no damage to plant)
Experimental: as §1

Avena fatua (AVEFA) [3] = experiment: as above; conditions: 312 h, rate 1000 g/ha, evaluated after 13 days, read-out: herbicidal damage AVEFA (100=total damage to plant; 0=no damage to plant)
Experimental: as §1

[4] = tested on: Amaranthus retroflexus (AMARE); experiment: as above; conditions: 312 h, rate 1000 g/ha, evaluated after 13 days, read-out: herbicidal damage AMARE (100=total damage to plant; 0=no damage to plant)
Experimental: as §1

Setaria faberi (SETFA) [5] = experiment: as above; conditions: 312 h, rate 1000 g/ha, evaluated after 13 days, read-out: herbicidal damage SETFA (100=total damage to plant; 0=no damage to plant)
Experimental: as §1

[6] = tested on: Echinochloa crus-galli (ECHCG); experiment: as above; conditions: 312 h, rate 1000 g/ha, evaluated after 13 days, read-out: herbicidal damage ECHCG (100=total damage to plant; 0=no damage to plant)
Experimental: as §1

[7] = tested on: Alopecurus myosuroides (ALOMY); experiment: Example B post-emergence herbicidal activity, glasshouse pot test; conditions: 312 h, rate 1000 g/ha, evaluated after 13 days, read-out: herbicidal damage ALOMY (100=total damage to plant; 0=no damage to plant)
Experimental: as §1, with “Post-Emergence” for “Pre-Emergence”

Solanum nigrum (SOLNI) [8] = experiment: as above; conditions: 312 h, rate 1000 g/ha, evaluated after 13 days, read-out: herbicidal damage SOLNI (100=total damage to plant; 0=no damage to plant)
Experimental: as §1, with “Post-Emergence” for “Pre-Emergence”

Avena fatua (AVEFA) [9] = experiment: as above; conditions: 312 h, rate 1000 g/ha, evaluated after 13 days, read-out: herbicidal damage AVEFA (100=total damage to plant; 0=no damage to plant)
Experimental: as §1, with “Post-Emergence” for “Pre-Emergence”

[10] = tested on: Amaranthus retroflexus (AMARE); experiment: as above; conditions: 312 h, rate 1000 g/ha, evaluated after 13 days, read-out: herbicidal damage AMARE (100=total damage to plant; 0=no damage to plant)
Experimental: as §1, with “Post-Emergence” for “Pre-Emergence”

Setaria faberi (SETFA) [11] = experiment: as above; conditions: 312 h, rate 1000 g/ha, evaluated after 13 days, read-out: herbicidal damage SETFA (100=total damage to plant; 0=no damage to plant)
Experimental: as §1, with “Post-Emergence” for “Pre-Emergence”

[12] = tested on: Echinochloa crus-galli (ECHCG); experiment: as above; conditions: 312 h, rate 1000 g/ha, evaluated after 13 days, read-out: herbicidal damage ECHCG (100=total damage to plant; 0=no damage to plant)
Experimental: as §1, with “Post-Emergence” for “Pre-Emergence”

Row | Compound | pest or weed control at 1000 g/ha [1] [%] | pest or weed control at 1000 g/ha (Solanum nigrum (SOLNI) [2]) [%] | pest or weed control at 1000 g/ha (Avena fatua (AVEFA) [3]) [%] | pest or weed control at 1000 g/ha [4] [%] | pest or weed control at 1000 g/ha (Setaria faberi (SETFA) [5]) [%] | pest or weed control at 1000 g/ha [6] [%] | pest or weed control at 1000 g/ha [7] [%] | pest or weed control at 1000 g/ha (Solanum nigrum (SOLNI) [8]) [%] | pest or weed control at 1000 g/ha (Avena fatua (AVEFA) [9]) [%] | pest or weed control at 1000 g/ha [10] [%] | pest or weed control at 1000 g/ha (Setaria faberi (SETFA) [11]) [%] | pest or weed control at 1000 g/ha [12] [%]
1 | CCC1(CC)COC(CC2CC(=O)C(c3cc(-c4ccc(Cl)cc4)ccc3C)=C(O)C2)OC1 (stereo not drawn) [Compound A-57] | 40 | 0 | 0 | 0 | 90 | 0 | 70 | 0 | 20 | 0 | 90 | 90
2 | Cc1cc(-c2ccc(C(F)(F)F)cc2)cc(C)c1C1=C(O)CC(CC2CCOCC2)CC1=O (stereo not drawn) [Compound A-38] | 30 | 0 | 20 | 0 | 100 | 100 | 30 | 20 | 40 | 0 | 100 | 90
3 | Cc1cc(-c2ccc(Cl)cc2)cc(C)c1C1=C(O)CC(CC2CCOCC2)CC1=O (stereo not drawn) [Compound A-37] | 80 | 20 | 90 | 20 | 100 | 100 | 90 | 70 | 100 | 40 | 100 | 100
4 | CCc1cc(-c2ccc(Cl)cc2)cc(CC)c1C1=C(O)CC(CC2CCOCC2)CC1=O (stereo not drawn) [Compound A-34] | 50 | 0 | 60 | 0 | 90 | 100 | 50 | 0 | 100 | 20 | 90 | 100
5 | Cc1ccc(-c2ccc(Cl)cc2)cc1C1=C(O)CC(CC2OCCCO2)CC1=O (stereo not drawn) [Compound A-55, 2-(4′-Chloro-4-methylbiphenyl-3-yl)-5-[1,3]dioxan-2-ylmethylcyclohexane-1,3-dione] | 0 | 0 | 20 | 0 | 60 | 60 | 90 | 0 | 90 | 0 | 100 | 100
6 | Cc1ccc(-c2ccc(Cl)cc2)cc1C1=C(O)CC(CC2OCC3(CCOCC3)O2)CC1=O (stereo not drawn) [Compound A-58] | 20 | 0 | 0 | 0 | 30 | 60 | 60 | 0 | 40 | 0 | 90 | 90
7 | CCc1ccc(-c2ccc(Cl)cc2)cc1C1=C(O)CC(CC2OCCO2)CC1=O (stereo not drawn) [Compound A-45] | 60 | 100 | 70 | 0 | 90 | 100 | 100 | 10 | 100 | 0 | 100 | 100
8 | Cc1ccc(-c2ccc(Cl)cc2)cc1C1=C(O)CC(CC2OCC(C)(C)CO2)CC1=O (stereo not drawn) [Compound A-56] | 20 | 0 | 0 | 0 | 70 | 0 | 80 | 0 | 0 | 0 | 90 | 100
9 | Cc1cc(-c2ccc(C)c(C3=C(O)CC(CC4CCOCC4)CC3=O)c2)ccc1F (stereo not drawn) [Compound A-48] | 0 | 0 | 0 | 0 | 20 | 20 | 60 | 0 | 60 | 10 | 80 | 80
10 | Cc1ccc(-c2ccc(Cl)cc2)cc1C1=C(O)CC(CC2OCC(C3CCOCC3)O2)CC1=O (stereo not drawn) [Compound A-59] | 20 | 0 | 0 | 0 | 60 | 0 | 70 | 0 | 20 | 0 | 90 | 90
11 | Cc1ccc(-c2ccc(Cl)cc2)cc1C1=C(O)CC(CC2OCCO2)CC1=O (stereo not drawn) [Compound A-46, 2-(4′-Chloro-4-methylbiphenyl-3-yl)-5-[1,3]dioxolan-2-ylmethylcyclohexane-1,3-dione] | 20 | 0 | 40 | 0 | 90 | 40 | 90 | 20 | 80 | 20 | 90 | 100
12 | Cc1ccc(-c2ccc(Cl)cc2)cc1C1=C(O)CC(CC2OCC3(CC3)CO2)CC1=O (stereo not drawn) [Compound A-65] | 20 | 20 | 0 | 30 | 60 | 70 | 40 | 60 | 20 | 90 | 70 | 70
13 | Cc1cc(-c2ccccc2)cc(C)c1C1=C(O)CC(CC2CCOCC2)CC1=O (stereo not drawn) [Compound A-41] | 90 | 0 | 80 | 0 | 100 | 100 | 90 | 40 | 70 | 40 | 100 | 100
